Structures are written as SMILES.

Consider `O=[N+]([O-])c1ccccc1CC(=NO)NCc1ncc(C(F)(F)F)cc1Cl`, for which the melting point was in the range of 122 to 126 °C.

Consider `CC(C#N)(NC(=O)c1c(Cl)cccc1Cl)c1ncc(C(F)(F)F)cc1Cl` (centres unmarked) [Compound 110, N-[1-(3-Chloro-5-trifluoromethyl-2-pyridyl)-1-cyanoethyl]-2,6-dichlorobenzamide], for which the melting point came to 166 °C.

(Values after patent publication US6630495B1, “Fungicides” (priority 1999, dated 2003).)
